Assay results as given in patent US7384931B2, “Constrained compounds as CGRP-receptor antagonists” (Bristol-Myers Squibb Company, priority 2004, dated 2008).
Counter-ions that a name gives are not always drawn.

Each compound was assayed against CGRP receptor (Homo sapiens, UniProt O60894+Q16602) (assay: CGRP radioligand binding assay ([125I]-CGRP displacement, SK-N-MC homogenate)). Conditions: displacement of [125I]-CGRP, room temperature 2 h.
Parameters: endogenous in cells; host or cells: SK-N-MC cells (homogenate/membrane pellet)
Method: CGRP Binding Assay. Tissue Culture. SK—N-MC cells were grown at 37° C. in 5% CO2 as a monolayer in medium consisting of MEM with Earle's salts and L-glutamine (Gibco) supplemented with 10% fetal bovine serum (Gibco). Cell Pellets. The cells were rinsed twice with phosphate-buffered saline (155 mM NaCl, 3.3 mM Na2HPO4, 1.1 mM KH2PO4, pH 7.4), and incubated for 5-10 min. at 4° C. in hypotonic lysis buffer consisting of 10 mM Tris (pH 7.4) and 5 mM EDTA. The cells were transferred from plates to polypropylene tubes (16×100 mm) and homogenized using a polytron. Homogenates were centrifuged at 32,000×g for 30 min. The pellets were resuspended in cold hypotonic lysis buffer with 0.1% mammalian protease inhibitor cocktail (Sigma) and assayed for protein concentration. The SK—N-MC homogenate was then aliquoted and stored at −80° C. until needed.
Radioligand Binding Assay. The compounds of invention were solubilized and carried through serial dilutions using 100% DMSO. Aliquots from the compound serial dilutions were further diluted 25 fold into assay buffer (50 mM Tris-Cl pH 7.5, 5 mM MgCl2, 0.005% Triton X-100) and transferred (volume 50 μl) into 96 well assay plates. [^125I]-CGRP (Amersham Biosciences) was diluted to 60 pM in assay buffer and a volume of 50 μl was added to each well. SK—N-MC pellets were thawed, diluted in assay buffer with fresh 0.1% mammalian protease inhibitor cocktail (Sigma), and homogenized again. SK—N-MC homogenate (5 μg/well) was added in a volume of 100 μl. The assay plates were then incubated at room temperature for 2 h. Assays were stopped by addition of excess cold wash buffer (20 mM Tris-Cl pH 7.5, 0.1% BSA) immediately followed by filtration over glass fiber filters (Whatman GF/B) previously soaked in 0.5% PEI. Non-specific binding was defined with 1 μM beta-CGRP. Protein bound radioactivity was determined using a gamma or scintillation counter. The IC50 was defined as the concentration of a compound of invention required to displace 50% of radioligand binding.

Sequence of CGRP receptor (Q16602 23-461): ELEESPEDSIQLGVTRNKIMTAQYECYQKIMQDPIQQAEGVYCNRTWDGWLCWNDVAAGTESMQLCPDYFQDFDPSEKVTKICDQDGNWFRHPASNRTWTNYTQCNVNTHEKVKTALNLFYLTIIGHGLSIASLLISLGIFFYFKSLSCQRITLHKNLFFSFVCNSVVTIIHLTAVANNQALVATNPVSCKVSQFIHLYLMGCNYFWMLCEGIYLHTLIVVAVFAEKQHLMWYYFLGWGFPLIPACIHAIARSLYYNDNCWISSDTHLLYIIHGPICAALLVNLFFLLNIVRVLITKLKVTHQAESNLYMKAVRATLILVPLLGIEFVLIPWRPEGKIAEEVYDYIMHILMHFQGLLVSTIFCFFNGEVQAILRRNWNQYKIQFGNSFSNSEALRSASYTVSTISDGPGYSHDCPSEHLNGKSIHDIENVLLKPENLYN
Sequence of CGRP receptor (O60894 27-148): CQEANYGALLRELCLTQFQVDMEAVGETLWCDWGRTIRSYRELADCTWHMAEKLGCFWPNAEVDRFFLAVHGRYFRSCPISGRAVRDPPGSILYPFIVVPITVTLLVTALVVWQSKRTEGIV

Row | Structure (SMILES) | IC50 [nM]
1 | O=C1Nc2ccccc2C2(CCN(C(=O)N[C@@H]3Cc4ccc5[nH]ncc5c4CN(Cc4ccc(C(F)(F)F)cc4)C3=O)CC2)N1 [Example 14, ′H-spiro[piperidine-4,4′-quinazolin]-2′(3′H)-one-1-carboxylic acid [8-oxo-9-(4-trifluoromethyl-benzyl)-3,6,7,8,9,10-hexahydro-2,3,9-triaza-(R)-cyclohepta[e]inden-7-yl]-amide] | 100 to 1000
2 | CC(C)N1Cc2c(ccc3[nH]ncc23)C[C@@H](NC(=O)N2CCC(N3Cc4ccccc4NC3=O)CC2)C1=O [Example 15, 4-(2-Oxo-1,4-dihydro-2H-quinazolin-3-yl)-piperidine-1-carboxylic acid (9-isopropyl-8-oxo-3,6,7,8,9,10-hexahydro-2,3,9-triaza-(R)-cyclohepta[e]inden-7-yl)-amide] | 10 to 100
3 | CC(C)(C)OC(=O)N1CCC(N2Cc3c(ccc4[nH]ncc34)C[C@@H](NC(=O)N3CCC(N4Cc5ccccc5NC4=O)CC3)C2=O)CC1 [Example 17] | 10 to 100
4 | O=C(N[C@@H]1Cc2ccc3[nH]ncc3c2CN(C2CCNCC2)C1=O)N1CCC(N2Cc3ccccc3NC2=O)CC1 [Example 18, 4-(2-Oxo-1,4-dihydro-2H-quinazolin-3-yl)-piperidine-1-carboxylic acid (8-oxo-9-piperidin-4-yl-3,6,7,8,9,10-hexahydro-2,3,9-triaza-(R)-cyclohepta[e]inden-7-yl)-amide] | 100 to 1000
5 | CC(C)(C)CN1Cc2c(ccc3[nH]ncc23)CC(NC(=O)N2CCC3(CC2)NC(=O)Nc2ccccc23)C1=O (stereo not drawn) [Example 23, N-[9-(2,2-dimethylpropyl)-8-oxo-3,6,7,8,9,10-hexahydroazepino[3,4-e]indazol-7-yl]-2′-oxo-2′,3′dihydro-1H, 1′H-spiro[piperidine-4,4′-quinazoline]-1-carboxamide] | 10 to 100
6 | CC(C)CN1Cc2c(ccc3[nH]ncc23)CC(NC(=O)N2CCC3(CC2)NC(=O)Nc2ccccc23)C1=O (stereo not drawn) [Example 25, N-[9-(2-methylpropyl)-8-oxo-3,6,7,8,9,10-hexahydroazepino[3,4-e]indazol-7-yl]-2′-oxo-2′,3′-dihydro-1H, 1′H-spiro[piperidine-4,4′-quinazoline]-1-carboxamide] | 100 to 1000
7 | O=C1Nc2ccccc2C2(CCN(C(=O)NC3Cc4ccc5[nH]ncc5c4CN(Cc4ccncc4)C3=O)CC2)N1 (stereo not drawn) [Example 29, N-[9-pyridin-4-ylmethyl-8-oxo-3,6,7,8,9,10-hexahydroazepino[3,4-e]indazol-7-yl]-2′-oxo-2′,3′-dihydro-1H,1′H-spiro[piperidine-4,4′-quinazoline]-1-carboxamide] | 100 to 1000
8 | CN1Cc2cc(OCc3ccccc3)ccc2CC(NC(=O)N2CCC(N3Cc4ccccc4NC3=O)CC2)C1=O (stereo not drawn) [Example 31, 4-(2-Oxo-1,4-dihydro-2H-quinazolin-3-yl)-piperidine-1-carboxylic acid (8-benzyloxy-2-methyl-3-oxo-2,3,4,5-tetrahydro-1H-benzo[c]azepin-4-yl)-amide] | > 1000
9 | CN1Cc2cc(O)ccc2CC(NC(=O)N2CCC(N3Cc4ccccc4NC3=O)CC2)C1=O (stereo not drawn) [Example 32, 4-(2-Oxo-1,4-dihydro-2H-quinazolin-3-yl)-piperidine-1-carboxylic acid (8-hydroxy-2-methyl-3-oxo-2,3,4,5-tetrahydro-1H-benzo[c]azepin-4-yl)-amide] | 100 to 1000
10 | CN1Cc2c(cc(Cl)c(O)c2Cl)CC(NC(=O)N2CCC(N3Cc4ccccc4NC3=O)CC2)C1=O (stereo not drawn) [Example 33, 4-(2-Oxo-1,4-dihydro-2H-quinazolin-3-yl)-piperidine-1-carboxylic acid (7,9-dichloro-8-hydroxy-2-methyl-3-oxo-2,3,4,5-tetrahydro-1H-benzo[c]azepin-4-yl)-amide] | > 1000
11 | CN1Cc2c(cc(Br)c(O)c2Br)CC(NC(=O)N2CCC(N3Cc4ccccc4NC3=O)CC2)C1=O (stereo not drawn) [Example 34, 4-(2-Oxo-1,4-dihydro-2H-quinazolin-3-yl)-piperidine-1-carboxylic acid (7,9-dibromo-8-hydroxy-2-methyl-3-oxo-2,3,4,5-tetrahydro-1H-benzo[c]azepin-4-yl)-amide] | 100 to 1000
12 | O=C(C[C@@H]1Cc2cc(Cl)c3[nH]ncc3c2CN(Cc2ccncc2)C1=O)N1CCC(c2cc(-c3ccccc3)[nH]n2)CC1 [Example 35, (S)-4-Chloro-7-(2-oxo-2-(4-(5-phenyl-1H-pyrazol-3-yl)piperidin-1-yl)ethyl)-9-(pyridin-4-ylmethyl)-6,7,9,10-tetrahydroazepino[3,4-e]indazol-8(3H)-one] | 10 to 100
13 | O=C(C[C@@H]1Cc2ccc3[nH]ncc3c2CN(Cc2ccccc2)C1=O)N1CCC(N2Cc3ccccc3NC2=O)CC1 [Example 38, (S)-9-Benzyl-7-(2-oxo-2-(4-(2-oxo-1,2-dihydroquinazolin-3(4H)-yl)piperidin-1-yl)ethyl)-6,7,9,10-tetrahydroazepino[3,4-e]indazol-8(3H)-one] | 100 to 1000
14 | CC(C)(C)CN1Cc2c(cc(Cl)c3[nH]ncc23)C[C@@H](CC(=O)N2CCC(c3nc4ccccc4[nH]c3=O)CC2)C1=O [Example 48, (S)-4-Chloro-9-neopentyl-7-(2-oxo-2-(4-(3-oxo-3,4-dihydroquinoxalin-2-yl)piperidin-1-yl)ethyl)-6,7,9,10-tetrahydroazepino[3,4-e]indazol-8(3H)-one] | 10 to 100
15 | O=C(C[C@@H]1Cc2cc(Cl)c3[nH]ncc3c2CN(Cc2ccncc2)C1=O)N1CCC(c2cc3cccc(F)c3[nH]c2=O)CC1 [Example 51, (S)-4-Chloro-7-(2-(4-(8-fluoro-2-oxo-1,2-dihydroquinolin-3-yl)piperidin-1-yl)-2-oxoethyl)-9-(pyridin-4-ylmethyl)-6,7,9,10-tetrahydroazepino[3,4-e]indazol-8(3H)-one] | 0.1 to 10
16 | Cc1cc2c(cc1N)CN(Cc1ccccc1)C(=O)[C@H](NC(=O)N1CCC(N3Cc4ccccc4NC3=O)CC1)C2 [Example 55, (R)-N-(8-Amino-2-benzyl-7-methyl-3-oxo-2,3,4,5-tetrahydro-1H-benzo[c]azepin-4-yl)-4-(2-oxo-1,2-dihydroquinazolin-3(4H)-yl)piperidine-1-carboxamide trifluoroacetate] | 100 to 1000
17 | Cc1c(N)ccc2c1CN(Cc1ccccc1)C(=O)[C@H](NC(=O)N1CCC(N3Cc4ccccc4NC3=O)CC1)C2 [Example 56, trifluoroacetate] | 100 to 1000
18 | O=C(N[C@@H]1Cc2ccc3[nH]ncc3c2CN(C2CCNC2)C1=O)N1CCC(N2Cc3ccccc3NC2=O)CC1 (stereo partly drawn) [Example 63, 4-(2-oxo-1,2-dihydroquinazolin-3(4H)-yl)-N-((R)-8-oxo-9-(pyrrolidin-3-yl)-3,6,7,8,9,10-hexahydroazepino[3,4-e]indazol-7-yl)piperidine-1-carboxamide] | 100 to 1000
19 | CC(C)(C)CN1Cc2c(ccc3[nH]ncc23)C[C@@H](CCN2CCC(N3Cc4ccccc4NC3=O)CC2)C1=O [Example 64, (S)-9-neopentyl-7-(2-(4-(2-oxo-1,2-dihydroquinazolin-3(4H)-yl)piperidin-1-yl)ethyl)-6,7,9,10-tetrahydroazepino[3,4-e]indazol-8(3H)-one] | > 1000
20 | CC(C)(C)CN1Cc2c(ccc3[nH]ncc23)C[C@@H](NC(=O)N2CCC(c3cc(-c4ccccc4)no3)CC2)C1=O [Example 65, (R)-N-(9-neopentyl-8-oxo-3,6,7,8,9,10-hexahydroazepino[3,4-e]indazol-7-yl)-4-(3-phenylisoxazol-5-yl)piperidine-1-carboxamide] | > 1000
21 | CC(C)(C)CN1Cc2c(ccc3[nH]ncc23)C[C@H](CC(=O)N2CCC(N3Cc4ccccc4NC3=O)CC2)C1=O [Example 66, 9-(2,2-dimethyl-propyl)-7-(R)-{2-oxo-2-[4-(2-oxo-1,4-dihydro-2H-quinazolin-3-yl)-piperidin-1-yl]-ethyl}-6,7,9,10-tetrahydro-3H-2,3,9-triaza-cyclohepta[e]inden-8-one] | 10 to 100
22 | CC(C)(C)CN1Cc2c(ccc3[nH]ncc23)C[C@@H](NC(=O)N2CCC(C3Cc4ccccc4NC3=O)CC2)C1=O (stereo partly drawn) [Example 67, N-((R)-9-neopentyl-8-oxo-3,6,7,8,9,10-hexahydroazepino[3,4-e]indazol-7-yl)-4-(2-oxo-1,2,3,4-tetrahydroquinolin-3-yl)piperidine-1-carboxamide] | 10 to 100
23 | CC(C)(C)CN1Cc2c(ccc3[nH]ncc23)C[C@@H](NC(=O)N2CCN(C3Cc4ccccc4NC3=O)CC2)C1=O (stereo partly drawn) [Example 68, N-((R)-9-Neopentyl-8-oxo-3,6,7,8,9,10-hexahydroazepino[3,4-e]indazol-7-yl)-4-(2-oxo-1,2,3,4-tetrahydroquinolin-3-yl)piperazine-1-carboxamide] | 100 to 1000
24 | CC(C)(C)CN1Cc2c(ccc3[nH]ncc23)C[C@@H](NC(=O)N2CCC(N3Cc4ccccc4CC3=O)CC2)C1=O [Example 69, (R)-N-(9-Neopentyl-8-oxo-3,6,7,8,9,10-hexahydroazepino[3,4-e]indazol-7-yl)-4-(3-oxo-3,4-dihydroisoquinolin-2(1H)-yl)piperidine-1-carboxamide] | 10 to 100
